Legend:
Type in all cases: in vivo
Ipomoea hederacea = experiment: greenhouse trial, foliar applied compositions, IPOHE (ivyleaf morningglory)
From the text: (§1) More specifically, the following equation is used to calculate the expected activity of mixtures containing two herbicidal active ingredients: Expected=A+B−(A×B/100) A=observed efficacy of a first active ingredient at the same concentration as used in the mixture; B=observed efficacy of the second active ingredient (or product, which may contain a combination of active ingredients) at the same concentration as used in the mixture. For mixtures containing three herbicidal active ingredients, the following equation can be used to calculate the expected activity: Expected=100−[(100−A)(100−B)(100−C)/10,000] A=observed efficacy of a first active ingredient at the same concentration as used in the mixture; B=observed efficacy of a second active ingredient B at the same concentration as used in the mixture; C=observed efficacy of a third active ingredient C at the same concentration as used in the mixture.
(§2) Results in Tables 1-12 are greenhouse trial results for foliar applied compositions.
(§3) g/ha=grams acid equivalent per hectare for Cmpd 1 and grams active ingredient per hectare for flurtamone, flufenacet, and diflufenican Obs=observed value Exp=expected value as calculated by the equations set forth above. Cmpd 1=methyl 4-amino-3-chloro-6-(4-chloro-2-fluoro-3-methoxyphenyl)-pyridine-2-carboxylate

Euphorbia heterohylla L. = experiment: greenhouse trial, foliar applied compositions, EPHHL (wild poinsettia)
From the text: as §1, §2, §3

[1] = tested on: Cirsium arvense (L.) Scop.; experiment: greenhouse trial, foliar applied compositions, CIRAR (Canada thistle)
From the text: as §1, §2, §3

[2] = tested on: Triticum aestivum (spring); experiment: greenhouse trial, foliar applied compositions, TRZAS (spring wheat)
From the text: as §1, §2, §3

[3] = tested on: Stellaria media (L.) Vill.; experiment: greenhouse trial, foliar applied compositions, STEME (common chickweed)
From the text: as §1, §2, §3

Cyperus esculentus L. = experiment: greenhouse trial, foliar applied compositions, CYPES (yellow nutsedge)
From the text: as §1, §2, §3

Setaria faberi Herrm. = experiment: greenhouse trial, foliar applied compositions, SETFA (giant foxtail)
From the text: as §1, §2, §3

[4] = tested on: Abutilon theophrasti Medik.; experiment: greenhouse trial, foliar applied compositions, ABUTH (velvetleaf)
From the text: as §1, §2, §3

[5] = tested on: Amaranthus retroflexus L.; experiment: greenhouse trial, foliar applied compositions, AMARE (redroot pigweed)
From the text: as §1, §2, §3

Viola tricolor L. = experiment: greenhouse trial, foliar applied compositions, VIOTR (wild violet)
From the text: as §1, §2, §3

Chenpodium album L. = experiment: greenhouse trial, foliar applied compositions, CHEAL (common lambsquarters)
From the text: as §1, §2, §3

[6] = foliar applied, Cmpd 1 5.00 g/ha

CNC1=C(c2cccc(C(F)(F)F)c2)C(=O)C(c2ccccc2)O1 (racemic) [Flurtamone, (±)-5-(methylamino)-2-phenyl-4-[3-(trifluoromethyl)phenyl]-3(2H)-furanone]
IPOHE Obs (Ipomoea hederacea; Flurtamone 62.5 g/ha): 25
IPOHE Obs (Ipomoea hederacea; Flurtamone 125 g/ha): 33
EPHHL Obs (Euphorbia heterohylla L.; Flurtamone 62.5 g/ha): 25
EPHHL Obs (Euphorbia heterohylla L.; Flurtamone 125 g/ha): 40
CIRAR Obs ([1]; Flurtamone 62.5 g/ha): 88
CIRAR Obs ([1]; Flurtamone 125 g/ha): 95
TRZAS Obs ([2]; Flurtamone 62.5 g/ha): 0
TRZAS Obs ([2]; Flurtamone 125 g/ha): 0
STEME Obs ([3]; Flurtamone 62.5 g/ha): 20
STEME Obs ([3]; Flurtamone 125 g/ha): 30
CYPES Obs (Cyperus esculentus L.; Flurtamone 62.5 g/ha): 5
CYPES Obs (Cyperus esculentus L.; Flurtamone 125 g/ha): 8
SETFA Obs (Setaria faberi Herrm.; Flurtamone 62.5 g/ha): 0
SETFA Obs (Setaria faberi Herrm.; Flurtamone 125 g/ha): 10
ABUTH Obs ([4]; Flurtamone 62.5 g/ha): 40
ABUTH Obs ([4]; Flurtamone 125 g/ha): 63
AMARE Obs ([5]; Flurtamone 62.5 g/ha): 40
AMARE Obs ([5]; Flurtamone 125 g/ha): 65
VIOTR Obs (Viola tricolor L.; Flurtamone 62.5 g/ha): 25
VIOTR Obs (Viola tricolor L.; Flurtamone 125 g/ha): 30
CHEAL Obs (Chenpodium album L.; Flurtamone 62.5 g/ha): 25
CHEAL Obs (Chenpodium album L.; Flurtamone 125 g/ha): 40

COC(=O)c1nc(-c2ccc(Cl)c(OC)c2F)cc(N)c1Cl [Cmpd 1, methyl 4-amino-3-chloro-6-(4-chloro-2-fluoro-3-methoxyphenyl)-pyridine-2-carboxylate]
IPOHE Obs (Ipomoea hederacea; Cmpd 1 1.25 g/ha): 15
IPOHE Obs (Ipomoea hederacea; Cmpd 1 2.50 g/ha): 15
IPOHE Obs (Ipomoea hederacea; Cmpd 1 5.00 g/ha): 35
EPHHL Obs (Euphorbia heterohylla L.; Cmpd 1 1.25 g/ha): 60
EPHHL Obs (Euphorbia heterohylla L.; Cmpd 1 2.50 g/ha): 89
EPHHL Obs (Euphorbia heterohylla L.; Cmpd 1 5.00 g/ha): 92
EPHHL Obs (Euphorbia heterohylla L.; [6]): 92
CIRAR Obs ([1]; Cmpd 1 1.25 g/ha): 20
CIRAR Obs ([1]; Cmpd 1 2.50 g/ha): 55
CIRAR Obs ([1]; Cmpd 1 5.00 g/ha): 75
CIRAR Obs [1, 6]: 75
TRZAS Obs ([2]; Cmpd 1 1.25 g/ha): 0
TRZAS Obs ([2]; Cmpd 1 2.50 g/ha): 0
TRZAS Obs ([2]; Cmpd 1 5.00 g/ha): 0
STEME Obs ([3]; Cmpd 1 1.25 g/ha): 20
STEME Obs ([3]; Cmpd 1 2.50 g/ha): 58
STEME Obs ([3]; Cmpd 1 5.00 g/ha): 65
STEME Obs [3, 6]: 65
CYPES Obs (Cyperus esculentus L.; Cmpd 1 1.25 g/ha): 58
CYPES Obs (Cyperus esculentus L.; Cmpd 1 2.50 g/ha): 85
CYPES Obs (Cyperus esculentus L.; Cmpd 1 5.00 g/ha): 81
CYPES Obs (Cyperus esculentus L.; [6]): 81
SETFA Obs (Setaria faberi Herrm.; Cmpd 1 1.25 g/ha): 0
SETFA Obs (Setaria faberi Herrm.; Cmpd 1 2.50 g/ha): 5
SETFA Obs (Setaria faberi Herrm.; Cmpd 1 5.00 g/ha): 0
ABUTH Obs ([4]; Cmpd 1 1.25 g/ha): 78
ABUTH Obs ([4]; Cmpd 1 2.50 g/ha): 91
ABUTH Obs ([4]; Cmpd 1 5.00 g/ha): 98
AMARE Obs ([5]; Cmpd 1 1.25 g/ha): 30
AMARE Obs ([5]; Cmpd 1 2.50 g/ha): 93
AMARE Obs ([5]; Cmpd 1 5.00 g/ha): 78
AMARE Obs [5, 6]: 78
VIOTR Obs (Viola tricolor L.; Cmpd 1 1.25 g/ha): 5
VIOTR Obs (Viola tricolor L.; Cmpd 1 2.50 g/ha): 15
VIOTR Obs (Viola tricolor L.; Cmpd 1 5.00 g/ha): 23
VIOTR Obs (Viola tricolor L.; [6]): 23
CHEAL Obs (Chenpodium album L.; Cmpd 1 1.25 g/ha): 60
CHEAL Obs (Chenpodium album L.; Cmpd 1 2.50 g/ha): 83
CHEAL Obs (Chenpodium album L.; Cmpd 1 5.00 g/ha): 85
CHEAL Obs (Chenpodium album L.; [6]): 85

O=C(Nc1ccc(F)cc1F)c1cccnc1Oc1cccc(C(F)(F)F)c1 [Diflufenican, N-(2,4-difluorophenyl)-2-[3-(trifluromethyl)phenoxy]-3-pyridinecarboxamide]
IPOHE Obs (Ipomoea hederacea; Diflufenican 25 g/ha): 10
IPOHE Obs (Ipomoea hederacea; Diflufenican 50 g/ha): 13
EPHHL Obs (Euphorbia heterohylla L.; Diflufenican 25 g/ha): 43
EPHHL Obs (Euphorbia heterohylla L.; Diflufenican 50 g/ha): 50
CIRAR Obs ([1]; Diflufenican 25 g/ha): 28
CIRAR Obs ([1]; Diflufenican 50 g/ha): 25
TRZAS Obs ([2]; Diflufenican 25 g/ha): 0
TRZAS Obs ([2]; Diflufenican 50 g/ha): 0
STEME Obs ([3]; Diflufenican 25 g/ha): 10
STEME Obs ([3]; Diflufenican 50 g/ha): 15
CYPES Obs (Cyperus esculentus L.; Diflufenican 25 g/ha): 0
CYPES Obs (Cyperus esculentus L.; Diflufenican 50 g/ha): 0
SETFA Obs (Setaria faberi Herrm.; Diflufenican 25 g/ha): 8
SETFA Obs (Setaria faberi Herrm.; Diflufenican 50 g/ha): 5
ABUTH Obs ([4]; Diflufenican 25 g/ha): 15
ABUTH Obs ([4]; Diflufenican 50 g/ha): 15
AMARE Obs ([5]; Diflufenican 25 g/ha): 25
AMARE Obs ([5]; Diflufenican 50 g/ha): 50
VIOTR Obs (Viola tricolor L.; Diflufenican 25 g/ha): 10
VIOTR Obs (Viola tricolor L.; Diflufenican 50 g/ha): 15
CHEAL Obs (Chenpodium album L.; Diflufenican 25 g/ha): 25
CHEAL Obs (Chenpodium album L.; Diflufenican 50 g/ha): 25

CC(C)N(C(=O)COc1nnc(C(F)(F)F)s1)c1ccc(F)cc1 [Flufenacet, N-(4-fluorophenyl)-N-(1-methylethyl)-2-[[5-(trifluoromethyl)-1,3,4-thiadiazol-2-yl]oxy]acetamide]
IPOHE Obs (Ipomoea hederacea; Flufenacet 30 g/ha): 0
IPOHE Obs (Ipomoea hederacea; Flufenacet 60 g/ha): 0
EPHHL Obs (Euphorbia heterohylla L.; Flufenacet 30 g/ha): 0
EPHHL Obs (Euphorbia heterohylla L.; Flufenacet 60 g/ha): 0
CIRAR Obs ([1]; Flufenacet 30 g/ha): 0
CIRAR Obs ([1]; Flufenacet 60 g/ha): 0
TRZAS Obs ([2]; Flufenacet 30 g/ha): 0
TRZAS Obs ([2]; Flufenacet 60 g/ha): 0
STEME Obs ([3]; Flufenacet 30 g/ha): 0
STEME Obs ([3]; Flufenacet 60 g/ha): 0
CYPES Obs (Cyperus esculentus L.; Flufenacet 30 g/ha): 0
CYPES Obs (Cyperus esculentus L.; Flufenacet 60 g/ha): 0
SETFA Obs (Setaria faberi Herrm.; Flufenacet 30 g/ha): 0
SETFA Obs (Setaria faberi Herrm.; Flufenacet 60 g/ha): 0
ABUTH Obs ([4]; Flufenacet 30 g/ha): 0
ABUTH Obs ([4]; Flufenacet 60 g/ha): 0
AMARE Obs ([5]; Flufenacet 30 g/ha): 0
AMARE Obs ([5]; Flufenacet 60 g/ha): 0
VIOTR Obs (Viola tricolor L.; Flufenacet 30 g/ha): 0
VIOTR Obs (Viola tricolor L.; Flufenacet 60 g/ha): 0
CHEAL Obs (Chenpodium album L.; Flufenacet 30 g/ha): 0
CHEAL Obs (Chenpodium album L.; Flufenacet 60 g/ha): 0

From patent US9232795B2, “Herbicidal compositions comprising 4-amino-3-chloro-6-(4-chloro-2-fluoro-3-methoxyphenyl) pyridine-2-carboxylic acid or a derivative thereof and flurtamone” (Dow AgroSciences LLC, priority 2012, dated 2016)
